Measurements taken from ChEMBL document CHEMBL1131391, “Identification and characterization of m4 selective muscarinic antagonists” (Bioorg Med Chem Lett, 1998).

Each compound was assayed against T1, Muscarinic acetylcholine receptor M1 (Homo sapiens, UniProt P11229) (assay: Evaluated for its binding affinity at human muscarinic receptor m1 by displacement of [3H]NMS binding using membranes in transfected chinese hamster ovarian cell).
T1 sequence (P11229 whole entry): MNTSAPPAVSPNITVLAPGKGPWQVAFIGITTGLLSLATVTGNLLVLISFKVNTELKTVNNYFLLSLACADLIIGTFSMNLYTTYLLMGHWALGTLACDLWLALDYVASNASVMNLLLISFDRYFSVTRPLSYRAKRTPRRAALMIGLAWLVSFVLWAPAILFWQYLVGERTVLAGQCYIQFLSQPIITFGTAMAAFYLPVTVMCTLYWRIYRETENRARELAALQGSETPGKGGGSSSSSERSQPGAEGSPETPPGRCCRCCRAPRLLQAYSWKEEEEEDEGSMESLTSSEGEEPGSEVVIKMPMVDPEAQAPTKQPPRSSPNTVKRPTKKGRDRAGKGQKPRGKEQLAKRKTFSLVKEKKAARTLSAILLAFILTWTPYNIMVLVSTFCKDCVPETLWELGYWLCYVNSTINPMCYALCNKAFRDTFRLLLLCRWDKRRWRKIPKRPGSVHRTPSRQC
Type: cell-based
Compound CCOC(=O)c1c(C)[nH]c2ccc3c(c12)CN1CCc2cc(OC)c(OC)cc2C1O3 (stereo not drawn) has an IC50 of 12.9 µM.
COc1cc2c(cc1OC)C1Oc3ccc4[nH]c(C)cc4c3CN1CC2 (stereo not drawn) showed an IC50 of 32.7 µM.
With COc1ccc2c(c1)CCN1Cc3c(ccc4[nH]c(C)cc34)OC21 (stereo not drawn) the IC50 was 10.8 µM.
CCOC(=O)c1c(C)[nH]c2ccc3c(c12)CN1CCc2cc(C)ccc2C1O3 (stereo not drawn) gave an IC50 of 3.28 µM.
With COc1ccc2c(c1)CCN1Cc3c(ccc4[nH]c(C)c(C(=O)OC(C)C)c34)OC21 (stereo not drawn) the IC50 was 4.06 µM.
For CCOC(=O)c1c(C)[nH]c2ccc3c(c12)CN1CCc2cc(Oc4ccccc4)ccc2C1O3 (stereo not drawn), the IC50 was 1.96 µM.
With CC1OC(=O)[C@H]2C[C@H]3CCCC[C@@H]3[C@@H](/C=C/C3CCC[C@H](C)N3C)[C@@H]12 (single isomer, unassigned) [HIMBACINE] the IC50 was 0.548 µM.
Compound CCOC(=O)c1c(C)[nH]c2ccc3c(c12)CN1CCc2cc(OCC)ccc2C1O3 (stereo not drawn) has an IC50 of 4.25 µM.
CCOC(=O)c1c(C)[nH]c2ccc3c(c12)CN1CCc2cc(OC)ccc2C1O3 (stereo not drawn) was tested, and the IC50 was 6.56 µM.

What follows are compounds tested against Muscarinic acetylcholine receptor M3 (Homo sapiens, UniProt P20309) (assay: Evaluated for its binding affinity at human muscarinic receptor m3 by the displacement of [3H]NMS binding using membranes from transfected chinese hamster ovarian cell).
Sequence of Muscarinic acetylcholine receptor M3 (P20309 whole entry): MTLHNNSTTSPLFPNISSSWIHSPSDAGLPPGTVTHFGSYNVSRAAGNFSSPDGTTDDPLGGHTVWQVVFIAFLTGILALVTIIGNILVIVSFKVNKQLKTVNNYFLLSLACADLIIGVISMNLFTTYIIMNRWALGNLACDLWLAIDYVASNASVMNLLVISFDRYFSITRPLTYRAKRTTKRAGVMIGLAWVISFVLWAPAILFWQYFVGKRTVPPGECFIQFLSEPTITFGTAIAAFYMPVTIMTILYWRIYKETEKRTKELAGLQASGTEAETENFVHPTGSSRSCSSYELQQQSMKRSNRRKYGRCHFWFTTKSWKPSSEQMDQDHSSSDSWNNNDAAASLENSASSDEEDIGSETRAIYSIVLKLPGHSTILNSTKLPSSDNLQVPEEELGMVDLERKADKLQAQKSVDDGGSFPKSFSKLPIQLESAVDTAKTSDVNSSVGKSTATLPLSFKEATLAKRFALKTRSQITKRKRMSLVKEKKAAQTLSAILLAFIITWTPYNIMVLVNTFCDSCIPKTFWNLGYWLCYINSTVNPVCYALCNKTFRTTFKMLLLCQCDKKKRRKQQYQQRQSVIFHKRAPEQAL
Type: cell-based
CCOC(=O)c1c(C)[nH]c2ccc3c(c12)CN1CCc2cc(OC)c(OC)cc2C1O3 (stereo not drawn) gave an IC50 of 1.62 µM.
COc1cc2c(cc1OC)C1Oc3ccc4[nH]c(C)cc4c3CN1CC2 (stereo not drawn) gave an IC50 of 32.6 µM.
For COc1ccc2c(c1)CCN1Cc3c(ccc4[nH]c(C)cc34)OC21 (stereo not drawn), the IC50 was 15.3 µM.
CCOC(=O)c1c(C)[nH]c2ccc3c(c12)CN1CCc2cc(C)ccc2C1O3 (stereo not drawn) gave an IC50 of 2.72 µM.
In the case of COc1ccc2c(c1)CCN1Cc3c(ccc4[nH]c(C)c(C(=O)OC(C)C)c34)OC21 (stereo not drawn), the IC50 is reported as 2.82 µM.
Compound CCOC(=O)c1c(C)[nH]c2ccc3c(c12)CN1CCc2cc(Oc4ccccc4)ccc2C1O3 (stereo not drawn) has an IC50 of 3.07 µM.
Compound CCOC(=O)c1c(C)[nH]c2ccc3c(c12)CN1CCc2cc(OCC)ccc2C1O3 (stereo not drawn) has an IC50 of 2.63 µM.
CCOC(=O)c1c(C)[nH]c2ccc3c(c12)CN1CCc2cc(OC)ccc2C1O3 (stereo not drawn) showed an IC50 of 0.95 µM.

What follows are compounds tested against T2, Muscarinic acetylcholine receptor M4 (Homo sapiens, UniProt P08173) (assay: Evaluated for its binding affinity at human muscarinic receptor m4 by the displacement of [3H]NMS binding using membranes from transfected chinese hamster ovarian cell).
T2 sequence (P08173 whole entry): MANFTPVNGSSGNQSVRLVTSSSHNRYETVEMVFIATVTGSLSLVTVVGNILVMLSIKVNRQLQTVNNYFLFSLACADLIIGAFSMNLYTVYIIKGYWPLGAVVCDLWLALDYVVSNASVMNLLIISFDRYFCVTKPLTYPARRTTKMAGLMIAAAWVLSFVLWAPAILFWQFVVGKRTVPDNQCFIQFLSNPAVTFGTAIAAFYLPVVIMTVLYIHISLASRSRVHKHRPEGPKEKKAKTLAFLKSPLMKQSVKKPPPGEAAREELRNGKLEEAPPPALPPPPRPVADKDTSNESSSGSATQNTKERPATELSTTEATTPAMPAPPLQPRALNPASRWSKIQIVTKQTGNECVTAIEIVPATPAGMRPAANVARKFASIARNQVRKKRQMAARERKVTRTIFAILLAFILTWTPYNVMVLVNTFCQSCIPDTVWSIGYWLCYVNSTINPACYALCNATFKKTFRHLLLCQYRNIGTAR
CCOC(=O)c1c(C)[nH]c2ccc3c(c12)CN1CCc2cc(OC)c(OC)cc2C1O3 (stereo not drawn) showed an IC50 of 0.301 µM.
Work on COc1cc2c(cc1OC)C1Oc3ccc4[nH]c(C)cc4c3CN1CC2 (stereo not drawn) yielded an IC50 of 4.74 µM.
In the case of COc1ccc2c(c1)CCN1Cc3c(ccc4[nH]c(C)cc34)OC21 (stereo not drawn), the IC50 is reported as 9.74 µM.
For CCOC(=O)c1c(C)[nH]c2ccc3c(c12)CN1CCc2cc(C)ccc2C1O3 (stereo not drawn), the IC50 was 0.465 µM.
COc1ccc2c(c1)CCN1Cc3c(ccc4[nH]c(C)c(C(=O)OC(C)C)c34)OC21 (stereo not drawn) was tested, and the IC50 was 2.05 µM.
Work on CCOC(=O)c1c(C)[nH]c2ccc3c(c12)CN1CCc2cc(Oc4ccccc4)ccc2C1O3 (stereo not drawn) yielded an IC50 of 2.63 µM.
CCOC(=O)c1c(C)[nH]c2ccc3c(c12)CN1CCc2cc(OCC)ccc2C1O3 (stereo not drawn) was tested, and the IC50 was 1.62 µM.
CCOC(=O)c1c(C)[nH]c2ccc3c(c12)CN1CCc2cc(OC)ccc2C1O3 (stereo not drawn) was tested, and the IC50 was 0.0907 µM.

These compounds were tested against T3, Muscarinic acetylcholine receptor M5 (Homo sapiens, UniProt P08912) (assay: Evaluated for its binding affinity at human muscarinic receptor m5 by the displacement of [3H]NMS binding using membranes from transfected chinese hamster ovarian cell).
T3 sequence (P08912 whole entry): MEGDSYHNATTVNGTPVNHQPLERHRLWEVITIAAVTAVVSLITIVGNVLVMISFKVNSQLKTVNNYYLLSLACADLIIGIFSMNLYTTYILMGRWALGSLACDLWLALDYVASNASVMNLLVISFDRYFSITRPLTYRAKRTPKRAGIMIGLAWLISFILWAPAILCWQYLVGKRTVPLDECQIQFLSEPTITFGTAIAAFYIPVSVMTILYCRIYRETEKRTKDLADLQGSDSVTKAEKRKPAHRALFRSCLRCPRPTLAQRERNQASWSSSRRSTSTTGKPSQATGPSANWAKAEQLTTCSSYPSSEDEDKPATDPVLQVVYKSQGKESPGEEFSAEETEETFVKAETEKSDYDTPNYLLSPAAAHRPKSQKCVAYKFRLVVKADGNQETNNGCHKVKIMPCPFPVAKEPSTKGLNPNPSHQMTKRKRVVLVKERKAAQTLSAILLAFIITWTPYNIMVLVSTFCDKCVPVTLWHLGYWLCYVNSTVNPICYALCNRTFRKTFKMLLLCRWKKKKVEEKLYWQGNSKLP
With CCOC(=O)c1c(C)[nH]c2ccc3c(c12)CN1CCc2cc(OC)c(OC)cc2C1O3 (stereo not drawn) the IC50 was 26.6 µM.
Work on COc1cc2c(cc1OC)C1Oc3ccc4[nH]c(C)cc4c3CN1CC2 (stereo not drawn) yielded an IC50 of 43.5 µM.
COc1ccc2c(c1)CCN1Cc3c(ccc4[nH]c(C)cc34)OC21 (stereo not drawn) gave an IC50 of 18 µM.
CCOC(=O)c1c(C)[nH]c2ccc3c(c12)CN1CCc2cc(C)ccc2C1O3 (stereo not drawn) was tested, and the IC50 was 3.88 µM.
COc1ccc2c(c1)CCN1Cc3c(ccc4[nH]c(C)c(C(=O)OC(C)C)c34)OC21 (stereo not drawn) gave an IC50 of 4.74 µM.
CCOC(=O)c1c(C)[nH]c2ccc3c(c12)CN1CCc2cc(Oc4ccccc4)ccc2C1O3 (stereo not drawn) gave an IC50 of 2.03 µM.
CC1OC(=O)[C@H]2C[C@H]3CCCC[C@@H]3[C@@H](/C=C/C3CCC[C@H](C)N3C)[C@@H]12 (single isomer, unassigned) [HIMBACINE] was tested, and the IC50 was 1.02 µM.
Work on CCOC(=O)c1c(C)[nH]c2ccc3c(c12)CN1CCc2cc(OCC)ccc2C1O3 (stereo not drawn) yielded an IC50 of 8.62 µM.
CCOC(=O)c1c(C)[nH]c2ccc3c(c12)CN1CCc2cc(OC)ccc2C1O3 (stereo not drawn) showed an IC50 of 7.41 µM.

These compounds were tested against T4, Muscarinic acetylcholine receptor M2 (Homo sapiens, UniProt P08172) (assay: Evaluated for its binding affinity at human muscarinic receptor m2 by displacement of [3H]NMS binding using membranes from transfected chinese hamster ovarian cell).
T4 sequence (P08172 whole entry): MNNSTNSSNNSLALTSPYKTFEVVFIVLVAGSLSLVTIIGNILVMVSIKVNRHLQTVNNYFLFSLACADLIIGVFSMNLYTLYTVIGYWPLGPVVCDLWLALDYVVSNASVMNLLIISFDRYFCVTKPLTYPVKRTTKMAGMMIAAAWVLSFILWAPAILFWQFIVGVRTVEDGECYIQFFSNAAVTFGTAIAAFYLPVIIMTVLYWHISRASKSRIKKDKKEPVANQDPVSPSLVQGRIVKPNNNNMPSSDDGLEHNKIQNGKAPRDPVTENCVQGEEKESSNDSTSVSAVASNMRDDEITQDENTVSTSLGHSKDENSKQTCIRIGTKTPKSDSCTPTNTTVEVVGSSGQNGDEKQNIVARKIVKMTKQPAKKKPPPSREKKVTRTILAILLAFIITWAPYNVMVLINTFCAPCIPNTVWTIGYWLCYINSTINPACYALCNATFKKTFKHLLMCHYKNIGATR
CCOC(=O)c1c(C)[nH]c2ccc3c(c12)CN1CCc2cc(OC)c(OC)cc2C1O3 (stereo not drawn) gave an IC50 of 9.34 µM.
In the case of COc1cc2c(cc1OC)C1Oc3ccc4[nH]c(C)cc4c3CN1CC2 (stereo not drawn), the IC50 is reported as 14.7 µM.
In the case of COc1ccc2c(c1)CCN1Cc3c(ccc4[nH]c(C)cc34)OC21 (stereo not drawn), the IC50 is reported as 1.15 µM.
Compound CCOC(=O)c1c(C)[nH]c2ccc3c(c12)CN1CCc2cc(C)ccc2C1O3 (stereo not drawn) has an IC50 of 9.52 µM.
COc1ccc2c(c1)CCN1Cc3c(ccc4[nH]c(C)c(C(=O)OC(C)C)c34)OC21 (stereo not drawn) was tested, and the IC50 was 2.64 µM.
CCOC(=O)c1c(C)[nH]c2ccc3c(c12)CN1CCc2cc(Oc4ccccc4)ccc2C1O3 (stereo not drawn) was tested, and the IC50 was 1.65 µM.
CC1OC(=O)[C@H]2C[C@H]3CCCC[C@@H]3[C@@H](/C=C/C3CCC[C@H](C)N3C)[C@@H]12 (single isomer, unassigned) [HIMBACINE] gave an IC50 of 0.0175 µM.
CCOC(=O)c1c(C)[nH]c2ccc3c(c12)CN1CCc2cc(OCC)ccc2C1O3 (stereo not drawn) was tested, and the IC50 was 2.56 µM.
Compound CCOC(=O)c1c(C)[nH]c2ccc3c(c12)CN1CCc2cc(OC)ccc2C1O3 (stereo not drawn) has an IC50 of 3.44 µM.
